# Read-outs that look alike come from different tables or passages of the source.
# What was measured:
# [1] = test system: P. aeruginosa (ATCC 27853); assay: MIC assay (broth microdilution, CLSI), without light; type: cell-based; settings: Pseudomonas aeruginosa, ATCC27853, light or radiation study
# Procedure: (§1) The MIC assays of TPA-1 were conducted according to the broth microdilution methods described in the Clinical and Laboratory Standards Institute (CLSI) standard. A single colony of S. aureus (ATCC 29213), methicillin-resistant S. aureus (BAA 41), or P. aeruginosa (ATCC 27853) on an LB agar plate was picked and suspended in Mueller–Hinton Broth (MHB). The bacterial culture was grown overnight at 37 °C. The next day, the bacteria culture was diluted 100 times in fresh MHB and grown to the mid log phase. Bacteria in the mid log phase were further diluted to 5 × 10^6 CFU/mL in cation-adjusted MHB (S. aureus) or MHB (P. aeruginosa). Ten μL of the diluted bacteria were added to a 96-well plate containing 90 μL of serial diluted TPA-1 in the corresponding medium. The plate was incubated overnight at 37 °C. The MICs of the TPA compounds were the concentrations at which no apparent bacteria were observed by the naked eye. Different concentrations of LTA were also added to examine the change in MIC values of TPA-1 against S. aureus. The experiments were conducted in triplicate.
# [2] = test system: methicillin-resistant S. aureus (BAA 41); assay: as above; type: cell-based; settings: Staphylococcus aureus
# Procedure: as §1
# planktonic P. aeruginosa = assay: Photodynamic eradication of planktonic bacteria; type: cell-based, Pseudomonas aeruginosa; settings: 2 μM, 600 nm (60 mW/cm^2)
# Procedure: (§2) For planktonic bacteria, an overnight culture of S. aureus or P. aeruginosa was diluted 100 times in TSB and grown to OD = 1. The bacteria cultures were then diluted to […] in PBS. TPA-1 (2 μM) was added to the diluted cultures and incubated under darkness for 20 min at 30 °C. Bacterial cultures of 200 μL were transferred to the wells of a 96-well plate. The plate was irradiated by 600 nm light (60 mW/cm^2) for 30 and 45 min. Then, the bacterial cultures were serially diluted, and the number of viable bacteria was counted using the plate counting method.
# S. aureus [3] = assay: Time-kill kinetics against S. aureus; type: cell-based, Staphylococcus aureus; settings: 2 × MIC (6.25 μM), dark
# Procedure: Similar to the MIC assay, the overnight culture of S. aureus incubated under darkness was diluted in fresh MHB and grown to the mid log phase. The S. aureus was then diluted to 1 × 10^6 CFU/mL in cation-adjusted MHB. Three mL of diluted S. aureus was transferred into a 15 mL culture tube. 2 × MIC and 4 × MIC of TPA-1 was added into the bacterial culture and incubated under darkness for 24 h. 2 × MIC of vancomycin and PBS were taken as the positive and negative controls, respectively. At time 0, 0.5, 1, 2, 4, 6, 8, and 24 h, 20 μL of the bacteria culture was taken out. The bacteria were serially diluted, and the number of viable bacteria was recorded using the plate counting method. The experiment was performed in triplicate.
# S. aureus biofilm = assay: Photodynamic eradication of biofilm bacteria; type: cell-based, Staphylococcus aureus; settings: light irradiation at 600 nm for 45 min
# Procedure: For biofilm bacteria, overnight culture of S. aureus or P. aeruginosa was diluted to 1 × 10^5 CFU/mL in TSB (with 1% glucose). Portion of 100 μL of the diluted bacteria culture was added to the wells of a 96-well plate. The plate was incubated under darkness for 24 h at 37 °C. Then, the planktonic bacterial suspensions were removed from the wells. The biofilms were washed with PBS (3 times) to remove any remaining planktonic bacteria. Different concentrations of TPA-1 were dissolved in PBS. TPA-1 solution was added to the biofilms (120 μL for S.aureus, 150 μL for P.aeruginosa). After 20 min of incubation under darkness at 30 °C, the biofilms were kept in the dark or irradiated by 600 nm light (60 mW/cm^2) for 15, 30, and 45 min. After that, the TPA-1 solution was replaced by 120 μL of PBS. The biofilm was then suspended in PBS by scratching, followed by sonication (5 min, ≤42 kHz) and vortex (5 min, 950 rpm). The number of viable bacteria was determined by the plate counting method. All experiments were carried out in triplicate.
# planktonic S. aureus = assay: Photodynamic eradication of planktonic bacteria; type: cell-based, Staphylococcus aureus; settings: 2 μM, 600 nm (60 mW/cm^2)
# Procedure: as §2
# [4] = test system: S. aureus biofilm formation; assay: S. aureus biofilm inhibition assay in the dark (crystal violet); type: cell-based; settings: Staphylococcus aureus, light or radiation study, without light irradiation
# Procedure: For biofilm inhibition assay, overnight culture of S. aureus in TSB was diluted to 1 × 10^7 CFU/mL in TSB (with 1% glucose). Ten μL of the diluted bacteria were added to a 96-well plate containing 90 μL of serial diluted TPA-1 in TSB (with 1% glucose). After overnight incubation at 37 °C in darkness, the medium in the well was removed. The remaining biofilm was washed with 200 μL of PBS (3 times) and fixed with 100 μL of methanol for 10 min. The well was left for drying. Then, 150 μL of 0.1% crystal violet was added to the wells and stained for 10 min. The crystal violet was removed, and the wells were washed with 200 μL of PBS (3 times). After drying, the remaining crystal violet was dissolved in 100 μL of 95% ethanol with gentle shaking, and the absorbance at 570 nm was recorded. The biofilm inhibition % was calculated as [1 – (ODTPA-1 – ODblank)/(ODmedium – ODblank)] × 100% where ODTPA-1, ODmedium and ODblank were the absorbances of the wells with bacteria treated TPA-1, with bacteria without treatment and with medium only, respectively. The experiment was performed in triplicate.
# S. aureus [5] = assay: Resistance development assay on S. aureus; type: cell-based, Staphylococcus aureus
# Procedure: The MICs for TPA-1 and norfloxacin against S. aureus were first determined by the above-mentioned method. The wells with 0.5 × MIC of compounds were transferred to 1 mL fresh MHB and incubated under darkness for 3–4 h at 37 °C. The bacteria were then used to conduct a MIC assay again. The experiments were repeated for 20 days. The fold changes in the MIC values of the compounds were recorded. The experiments were performed in duplicate.
structure (smiles),measurement,setting,value
C#CCC[n+]1c(/C=C/c2ccc(-c3ccc(N(c4ccc(OCCC[N+](C)(C)C)cc4)c4ccc(OCCC[N+](C)(C)C)cc4)cc3)s2)sc2ccccc21.[Br-].[Br-].[Br-] [TPA-1],MIC,[1]; read-out: MIC against ATCC 27853 Pseudomonas aeruginosa without light irradiation,100 µM
same,MIC,"[1]; without light irradiation, read-out: MIC against P. aeruginosa (ATCC 27853)",> 100 µM
same,MIC,"[2]; ATCC BAA-41 / BAA-41, light or radiation study, read-out: MIC against ATCC BAA41 Methicillin-resistant Staphylococcus aureus without light irradiation",3.12 µM
same,MIC,"[2]; BAA41, light or radiation study, read-out: MIC against methicillin-resistant S. aureus (BAA 41)",3.12 µM
same,planktonic P. aeruginosa eradicated,planktonic P. aeruginosa; 30 min,99.96% ± 0.03%
same,planktonic P. aeruginosa log CFU/mL reduction,planktonic P. aeruginosa; 30 min,3.4 ± 0.2 log CFU/mL
same,planktonic P. aeruginosa eradicated,planktonic P. aeruginosa; 45 min,> 99.99%
same,planktonic P. aeruginosa log CFU/mL reduction,planktonic P. aeruginosa; 45 min,> 5 log CFU/mL
same,time to completely eradicate S. aureus,S. aureus [3],≤ 2 h
same,S. aureus biofilm log CFU/mL reduction,S. aureus biofilm,1.18 ± 0.05 log CFU/mL
same,S. aureus in the biofilm eradicated,S. aureus biofilm,92% ± 3%
same,planktonic S. aureus eradicated,planktonic S. aureus; 30 min,99.2% ± 0.7%
same,planktonic S. aureus log CFU/mL reduction,planktonic S. aureus; 30 min,2.2 ± 0.4 log CFU/mL
same,planktonic S. aureus eradicated,planktonic S. aureus; 45 min,> 99.99%
same,planktonic S. aureus log CFU/mL reduction,planktonic S. aureus; 45 min,> 5 log CFU/mL
same,inhibition at 3.125 µM,[4]; 1 × MIC (3.125 μM),> 90%
same,inhibition at 6.25 µM,[4]; ≥ 6.25 μM,> 99.9%
same,increase of MIC against S. aureus after treatment for 20 days,S. aureus [5]; 20 days of passages at 0.5 × MIC,2 fold
same,MIC,"S. aureus [5]; Staphylococcus aureus, read-out: initial MIC against S. aureus in resistance development assay",3.12 µM

# Source: article PMC12035805, “A Water-Soluble Aggregation-Induced Emission Photosensitizer with Intrinsic Antibacterial Activity as an Antiplanktonic and Antibiofilm Therapeutic Agent” (Journal of Medicinal Chemistry, 2025)
